Reference: US11976076B1 (priority 2023, dated 2024)
In brackets after ≈: the same amount, converted by molar mass.

system: multidrug-resistant (MDR) strains of Mycobacterium tuberculosis; assay: microbe, parasite or virus in culture; type: cell-based; conditions: 192 h, read-out: Anti-tubercular activity (MIC) MDR-TB

Compound	MIC
Cn1c(=O)c2c(-c3c[nH]c4ccccc34)nc(=S)[nH]c2n(C)c1=O [Compound 4c, 5-(1H-Indol-3-yl)-1,3-dimethyl-7-thioxo-7,8-dihydropyrimido[4,5-d]pyrimidine-2,4(1H,3H)-dione]	4 µg/mL (≈ 11.8 µM)
O=c1[nH]c(=S)[nH]c2[nH]c(=S)nc(-c3c[nH]c4ccccc34)c12 [Compound 4b, 5-(1H-Indol-3-yl)-2,7-dithioxo-2,3,7,8-tetrahydropyrimido[4,5-d]pyrimidin-4(1H)-one]	8 µg/mL (≈ 24.4 µM)
O=c1[nH]c(=O)c2c(-c3c[nH]c4ccccc34)nc(=S)[nH]c2[nH]1 [Compound 4a, 5-(1H-Indol-3-yl)-7-thioxo-7,8-dihydropyrimido[4,5-d]pyrimidine-2,4(1H,3H)-dione]	16 µg/mL (≈ 51.4 µM)
